Experimental data: PubChem BioAssay (NCI)
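How tested: cells in 96-well plates exposed to compound for 48 hours at five concentrations. TGI: total growth inhibition.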

Tests used:
Experiment in all cases: NCI tumour cell line growth inhibition, 48 h
MDA-MB-435 = system: MDA-MB-435
OVCAR-5 ovarian = system: OVCAR-5 ovarian
NCI-H226 lung = system: NCI-H226 lung
SK-MEL-5 melanoma = system: SK-MEL-5 melanoma
RPMI-8226 leukemia = system: RPMI-8226 leukemia
NCI-H460 lung = system: NCI-H460 lung
A498 renal = system: A498 renal
786-0 renal = system: 786-0 renal
UACC-257 melanoma = system: UACC-257 melanoma
MDA-MB-231 breast = system: MDA-MB-231 breast
EKVX NSCLC = system: EKVX NSCLC

SMILES | TGI (MDA-MB-435) | TGI (OVCAR-5 ovarian) | TGI (NCI-H226 lung) | TGI (SK-MEL-5 melanoma) | TGI (RPMI-8226 leukemia) | TGI (NCI-H460 lung) | TGI (A498 renal) | TGI (786-0 renal) | TGI (UACC-257 melanoma) | TGI (MDA-MB-231 breast) | TGI (EKVX NSCLC)
O=C1CC2(CCC(O)(c3ccc(Cl)cc3)C(C(=O)c3ccc(Cl)cc3)C2)C(=O)c2ccccc2N1 (stereo unspecified) | > 100 µM | > 100 µM | > 52.5 µM | 43.4 µM | > 100 µM | > 100 µM | 52.6 µM | 4.24 µM | 62.6 µM | 30.6 µM | > 48.6 µM
COC(=N)C12C(N)=NC(OC)(OC)C1(C#N)C21C(=O)N(c2ccccc2)N=C1C (stereo unspecified) | > 100 µM | > 100 µM | > 100 µM |  | > 100 µM | > 100 µM | > 100 µM | > 100 µM | > 100 µM | > 100 µM | > 100 µM
O=c1c2cccnc2nc2ccc3c[nH][nH]c3c12 | > 10 µM | > 10 µM | > 10 µM | > 10 µM | > 10 µM | > 10 µM | > 10 µM | > 10 µM | > 10 µM | > 10 µM | > 10 µM
CC(C)(C)N1NC1C1NN1C(C)(C)C (stereo unspecified) | > 100 µM | > 100 µM | > 100 µM | > 100 µM | > 100 µM | > 100 µM | > 100 µM | > 100 µM | > 100 µM | > 100 µM | > 100 µM
[N-]=[N+]=Nc1ccc2c(c1)Sc1ccccc1N2CCCCCl | > 100 µM | > 100 µM | > 100 µM | 59.8 µM | > 100 µM | > 100 µM | > 100 µM | > 100 µM | > 100 µM | > 100 µM | > 100 µM
c1ccc(CCN(Cc2nc3ccccc3[nH]2)Cc2nc3ccccc3[nH]2)cc1 | 29.8 µM | 71.6 µM | > 68.5 µM | 16.3 µM | 11.6 µM | 28.3 µM | 30.6 µM | 31.7 µM | 32.5 µM | 31.8 µM | > 77.8 µM
O=C(Nc1nc(C23CC4CC(CC(C4)C2)C3)cs1)c1cc2cc(Br)cc(Br)c2oc1=O | > 100 µM | > 100 µM | > 100 µM | > 100 µM | > 100 µM | > 100 µM | > 100 µM | > 100 µM | > 100 µM | > 100 µM | > 100 µM
CC1(C)C(=O)N=C(N)N1C(=O)OCc1ccccc1 | > 100 µM | > 100 µM | > 100 µM | > 100 µM | > 100 µM | > 100 µM | > 100 µM | > 100 µM | > 100 µM | > 100 µM | > 100 µM
O=[N+]([O-])c1cccc2nccc(NCC(O)CO)c12 (stereo unspecified) | 37.8 µM | 42.1 µM | 19.4 µM | 25.8 µM | 61.2 µM | 26.3 µM | 19.3 µM | 35 µM | 30 µM | 45 µM | 27.6 µM
CCCCc1c2c(nc3c1CCC/C3=C\c1ccccc1)C(=O)C(CN(C)C)CC2 (stereo unspecified) | 37.2 µM | 33.8 µM | 51.6 µM | 30.9 µM | 31.8 µM | 34.5 µM | 33.2 µM | 23.9 µM | 33.7 µM | 31.9 µM | 36.1 µM
COc1cc2cc(C(=O)N3CC(CCl)c4ccc(NCCN)cc43)[nH]c2c(OC)c1OC (stereo unspecified) | 0.706 µM | 6.03 µM | 1.76 µM | 0.263 µM | 1.17 µM | 4 µM | 0.339 µM | 1.12 µM | 0.637 µM | 1.9 µM | 6.1 µM
CCOC(=O)c1ccc(C(=O)/C(C#N)=C2\CCCN2)[nH]1 | > 100 µM | > 100 µM | > 100 µM | > 100 µM | > 100 µM | > 100 µM | > 100 µM | > 100 µM | > 100 µM | > 100 µM | > 100 µM
CC(C)CCC[C@@H](C)C1CCC2[C@@H]3CCC4CC(CCC=C(c5cc(Cl)c(OC(=O)c6ccccc6)c(C(=O)O)c5)c5cc(Cl)c(OC(=O)c6ccccc6)c(C(=O)O)c5)CC[C@]4(C)C3CC[C@@]21C (stereo partly specified) | > 100 µM | > 100 µM | > 100 µM | 78.8 µM | > 100 µM | > 100 µM | > 100 µM | 75.2 µM | > 100 µM | 26.5 µM | > 100 µM
COC(=O)C1(O)c2ccccc2N=C2C(=O)c3ccccc3N21 (stereo unspecified) | 26.3 µM | > 100 µM | > 100 µM | > 100 µM | > 100 µM | > 100 µM | > 100 µM | > 100 µM | > 100 µM | > 100 µM | > 100 µM
O=S1(=O)CCN(Cc2ccccc2)/C1=N\S(=O)(=O)c1ccc(Cl)cc1 | 36.2 µM | 33.4 µM | 34.4 µM | 41.9 µM | 79 µM | 48 µM | 73.5 µM | 34.5 µM | 35.7 µM | > 100 µM | 28.5 µM
C=C1C(=O)C23CC1C[C@H](OC(C)=O)C2C1(C)C(OC(C)=O)C[C@H](O)C(C)(C)[C@H]1C(O)[C@@H]3OC(C)=O (stereo partly specified) | 20.6 µM | 28.8 µM | 45 µM | 27.9 µM | 16.4 µM | > 60 µM | 28.4 µM | 20.7 µM | 24.5 µM | 18.6 µM | 29.1 µM
CCOC(=O)c1c(NC(=O)Nc2ccccc2)c(C(N)=O)c2n1CCCCC2 | > 100 µM |  | > 100 µM | > 100 µM | > 100 µM | > 100 µM | > 100 µM | > 100 µM | > 100 µM | > 100 µM | > 100 µM
CC1NC(/C(=C/c2ccccc2O)NC(=O)c2ccccc2)OC1=O (stereo unspecified) | > 50 µM | > 50 µM | > 50 µM | > 50 µM | > 50 µM |  | > 50 µM | > 50 µM | > 50 µM | > 50 µM | > 50 µM
CC(=O)c1ccc2c(c1)oc(=O)n2CCN1CCCCC1 | > 100 µM | > 100 µM | > 100 µM | > 100 µM | > 100 µM | > 100 µM | > 100 µM | > 100 µM | > 100 µM | > 100 µM | > 100 µM
